Patent publication EP0960886B1, “Peptide T and related peptides in the treatment of inflammation, including multiple sclerosis” (priority 1992, dated 1993)
Square brackets hold non-standard residues; d marks the D form. Ends that are not written are not given here. Peptide text beside a SMILES is read from it.

Legend:
LPS = LPS toxicity and survival in mice bearing Meth A ascites tumours (Example 7); type: in vivo; details: 100 µg LPS subcutaneously with 1mg analogue
Method: Mice bearing Meth A ascites tumours were given 100 µg LPS subcutaneously with either bovine serum albumin (BSA) or peptide T analogue (504 or 505, 1mg). The number of animals showing signs of LPS toxicity (diarrhoea, exudate from the eyes and general level of activity) in each group was recorded at 19, 24 and 41 hours after injection. At the completion of the experiment the number of surviving animals was recorded (see Table II below) and the survivors bled for later determination of TNF, IL-1, IL-6 and RNI levels.

human neutrophils [1] = assay: TNF-induced neutrophil chemiluminescence (lucigenin-dependent); type: cell-based; details: 500-1000U/ml TNF
Method: (§1) Neutrophils. Neutrophils were isolated from whole blood from healthy blood donors. Separation was achieved by the rapid-single-step method of centrifugation of whole blood on FICOLL-HYPAQUE™. These were >99% viable and usually >98% pure.
(§2) Peptides and TNF. TNF was a recombinant product produced in E. coli. Peptide T and analogue 505 (D-Ser-Ser-D-Thr-Thr-D-Thr-Thr-Tyr-D-Thr) were resuspended in Hank's Balanced Salt Solution (HBSS).
(§3) To 100µl of 500-1000U/ml of TNF was added 10µl of peptide and after 5 min 100µl of 1x10^7 neutrophils/ml was added. The cells further incubated at 37°C/20 min and then tested for chemiluminescence activity. In some cases an agonist such as fMLP (10^-7M) was added. Chemiluminescence was measured in a luminometer (LKB). The results for Peptide T are presented in Figure 12 as peak rate of CL release. Lucigenin-dependent chemiluminescence was measured: this represents superoxide measurement. In another set of experiments the effects of analogue 505 on the LPS-induced neutrophil chemiluminescence were examined. In this case the LPS was essentially substituted for the TNF. The concentration of LPS was 0.005µg/ml.

human neutrophils [2] = assay: LPS-induced neutrophil chemiluminescence; type: cell-based; details: LPS 0.005µg/ml
Method: as §1, §2, §3

[3] = test system: mouse foetal hippocampal neurons; details: cultures of mouse foetal hippocampal neurons; cited from earlier work
[4] = spinal administration to rats; tail-flick latency and tail-shock induced vocalisation; cited from earlier work

Compound | % mice surviving 41 hours (LPS) | % mice with diarrhoea at 19 hrs (LPS) | % mice with exudate at 19 hrs (LPS) | TNF priming and activation of human neutrophils (human neutrophils [1]) | LPS activation of human neutrophils (human neutrophils [2]) | gp120-induced neurotoxicity [3] | analgesia [4]
C[C@H](O)[C@@H](NC(=O)[C@H](Cc1ccc(O)cc1)NC(=O)[C@H](CC(N)=O)NC(=O)[C@H](NC(=O)[C@@H](NC(=O)[C@H](NC(=O)[C@H](CO)NC(=O)[C@@H](C)N)[C@H](C)O)[C@@H](C)O)[C@H](C)O)C(N)=O [analogue 504] | 100% | 40% | 60% | – | – | – | –
C[C@H](O)[C@@H](NC(=O)[C@H](Cc1ccc(O)cc1)NC(=O)[C@@H](NC(=O)[C@H](NC(=O)[C@@H](NC(=O)[C@H](NC(=O)[C@H](CO)NC(=O)[C@H](N)CO)[C@H](C)O)[C@@H](C)O)[C@H](C)O)[C@@H](C)O)C(N)=O [analogue 505, D-Ser-Ser-D-Thr-Thr-D-Thr-Thr-Tyr-D-Thr] (H-[dS]S[dT]T[dT]TY[dT]-NH2) | 100% | 40% | 20% | inhibits TNF priming and activation | inhibits LPS activation | – | –
human vasoactive intestinal peptide (HSDAVFTDNYTRLRKQMAVKKYLNSILN; ends and bridges not checked; UniProt P01282 125-152, looked up) [VIP, reference compound] | – | – | – | – | – | completely eliminated | produced analgesia
